Counter-ions that a name gives are not always drawn. Calls of active or inactive are those of the source. Rule as the data show it, for most assays here: actives have a measured EC50 and inactives only a lower limit.
Legend:
[1] = inhibitors of intracellular T. cruzi replication, confirmation, NIH3T3 host cells, beta-gal luminescence (AID 2044); assay type: functional, cell-based;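 also: intracellular parasites grown in NIH/3T3 mouse fibroblasts as host cells; luminescent beta-galactosidase reporter signal from transgenic T. cruzi replicating inside host cells; inhibitors lower the luminescence signal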
[2] = cytotoxicity toward NIH3T3 fibroblasts, dose response, counter-screen, cell-based, ATP luminescence, mouse fibroblasts (AID 2010); assay type: functional;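 also: cells exposed to compound for about 90 hours before reading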
[3] = Luminescence Cell-Based Dose Retest to Confirm Inhibitors of Cancer Stem Cells. [Related pubchem assays (depositor defined):AID2717, AID2721]; assay type: functional; settings: Homo sapiens
[4] = NIH-3T3 fibroblast cytotoxicity, dose response, cytotoxicity control, cell-based, fluorescence, Alamar Blue, secondary assay (AID 2327); assay type: functional;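 also: NIH-3T3 mouse fibroblasts cultured with fluconazole at 8 µg/mL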
[5] = C. albicans growth with fluconazole, confirmation, fluorescence, retest (AID 2467); assay type: functional, cell-based
[6] = molecular target: T1, Heat shock factor protein 1 (Mus musculus, UniProt P38532); experiment: inhibition of MG132-induced HSE-luciferase signal, confirmation, cell-based, NIH3T3, luminescence, dose retest (AID 2382); assay type: functional;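 also: NIH3T3 fibroblasts with HSF1-driven luciferase reporter stressed by proteasome inhibitor MG132; luminescence from HSF1-driven luciferase expression after 8 hours of MG132 stress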
T1 sequence (P38532 whole entry): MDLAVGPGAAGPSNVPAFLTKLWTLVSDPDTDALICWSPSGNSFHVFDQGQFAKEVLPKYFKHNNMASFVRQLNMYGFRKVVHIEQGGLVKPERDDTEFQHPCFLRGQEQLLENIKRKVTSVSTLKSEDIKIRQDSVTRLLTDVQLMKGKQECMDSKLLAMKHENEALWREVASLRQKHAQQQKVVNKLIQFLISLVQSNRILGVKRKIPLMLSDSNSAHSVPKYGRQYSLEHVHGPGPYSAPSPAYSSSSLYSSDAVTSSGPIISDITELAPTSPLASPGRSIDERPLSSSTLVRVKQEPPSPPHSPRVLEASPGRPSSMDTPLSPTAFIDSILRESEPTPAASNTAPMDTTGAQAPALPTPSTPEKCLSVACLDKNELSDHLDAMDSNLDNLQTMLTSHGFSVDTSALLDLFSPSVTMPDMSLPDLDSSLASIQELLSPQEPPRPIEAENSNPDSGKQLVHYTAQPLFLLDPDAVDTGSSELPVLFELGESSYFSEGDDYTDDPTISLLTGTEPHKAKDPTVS

[7] = HEp-2 cell cytotoxicity, dose response, cytotoxicity control for RSV inhibitor project, HTS (AID 2410); assay type: functional; settings: human respiratory syncytial virus
[8] = test system: Streptococcus sp. 'group A'; experiment: growth inhibition of control SK(-) GAS strain, dose response, counter-screen for streptokinase expression inhibitor project, luminescence, kanamycin, BacTiterGlo, confirmation (AID 1900); assay type: functional, organism-based
Streptococcus = experiment: Group A Streptococcus viability loss, dose response, counter-screen for streptokinase expression inhibitor project, luminescence, BacTiterGlo (AID 1915); assay type: functional, organism-based;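 also: potency for reduction of bacterial viability or growth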
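For AC50 in this document: cells exposed to compound for roughly 70 hours or longer before luminescence read.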

## O=C(c1ccc([N+](=O)[O-])s1)N1CCN(c2ccccc2)CC1
[1]
  EC50: 0.808 µM (active)
[2]
  EC50: > 60 µM (not active)

## CCN(CC)S(=O)(=O)c1ccc(N2CCN(C)CC2)c(NC(=O)COc2ccc(F)cc2Cl)c1
[1]
  EC50: 0.252 µM (active)
[2]
  EC50: > 60 µM (not active)

## Cc1cc(C)c2nc(O)c(CN(Cc3cccs3)C(S)=NCc3ccco3)cc2c1
[3]
  AC50: 61.4 µM (active)

## Cc1ccc(NC(=O)NC2CCCCCCC2)c(C)c1
[4]
  EC50: 19.6 µM (inconclusive)
[5]
  EC50: > 38 µM (not active)

## CC(Oc1ccc(Br)cc1)C(=O)NC1CCN(Cc2ccccc2)CC1 (stereo not drawn)
[1]
  EC50: 0.579 µM (active)
[2]
  EC50: > 60 µM (not active)

## Cc1ccc(/C=C/C(=O)NCCc2ccccc2)o1
[3]
  AC50: > 195 µM (inactive)

## C=CCOc1c(Cl)cc(CNc2ccc(C)c(Cl)c2)cc1OC
[1]
  EC50: 2.75 µM (active)
[2]
  EC50: 0.491 µM (active)

## CCOC(=O)c1cnc(SC)nc1Oc1cccc(NS(=O)(=O)c2ccccc2)c1
[1]
  EC50: 1.64 µM (active)
[2]
  EC50: > 60 µM (not active)

## CC(=S)/C=C1\Sc2ccccc2N1C
[4]
  EC50: > 150 µM (inactive)
[1]
  EC50: 0.739 µM (active)
[5]
  EC50: 1.9 µM (active)
[2]
  EC50: > 60 µM (not active)

## O=C(NC1CCCCC1)C1CCN(c2nccs2)CC1
[6]
  EC50: > 195 µM (not active)

## Cc1ccc(C)c(N2CCN(C(=O)c3cc(S(=O)(=O)N4CCCC4)cn3C)CC2)c1
[6]
  EC50: > 195 µM (not active)

## Cc1cccc(CN2C(=O)[C@@H]3Cc4c([nH]c5ccccc45)C(C)(C)N3C2=O)c1
[3]
  AC50: 11.9 µM (active)

## Cc1nnc(-c2cnn(-c3ccccc3)c2N)n1Cc1cccc(C(F)(F)F)c1
[6]
  EC50: > 195 µM (not active)

## CCC(=O)N1CCN(c2cc(N3CCN(C)CC3)c(F)cc2[N+](=O)[O-])CC1
[1]
  EC50: 0.765 µM (active)
[2]
  EC50: > 60 µM (not active)

## Cc1cc(C)nc(N=C(NCc2ccc3c(c2)OCO3)NC(=O)Nc2ccccc2)n1
[4]
  EC50: > 150 µM (inactive)
[5]
  EC50: > 38 µM (not active)

## CCOc1ccccc1CN1CCN(CC2=Cc3cc(OC)ccc3OC2)CC1CCO (stereo not drawn)
[1]
  EC50: 1.29 µM (active)
[2]
  EC50: > 60 µM (not active)

## Cc1ccc(SCCN=C(S)Nc2ccc(C)cc2C)cc1
[1]
  EC50: 2.2 µM (active)
[2]
  EC50: > 60 µM (not active)

## CC(=O)Nc1ccc(S(=O)(=O)NCc2ccc(C(=O)NCc3ccc4c(c3)OCO4)cc2)cc1
[6]
  EC50: > 195 µM (not active)

## COc1cccc(-c2nc(CCl)cs2)c1
[1]
  EC50: 3.25 µM (active)
[2]
  EC50: > 60 µM (not active)

## COc1cc(NS(=O)(=O)c2ccc(NC(=S)NC(=O)/C=C/c3ccc(OC)c(OC)c3)cc2)ncn1
[6]
  EC50: > 195 µM (not active)

## O=C(c1ccc(C(=O)N2CCN(c3ccccc3F)CC2)nc1)N1CCN(c2ccccc2F)CC1
[4]
  EC50: > 160 µM (inactive)
[5]
  EC50: > 38 µM (not active)

## O=C(Nc1ccc2c(c1)OCO2)c1ccc(COc2ccc3c(c2)CCC3)o1
[3]
  AC50: 3.1 µM (active)

## Cc1ccsc1/C=C1\C(=O)NC(=S)N(C)C1=O
[6]
  EC50: > 195 µM (not active)

## COc1ccc(Br)c2oc(SC)cc(=O)c12
[7]
  CC50: > 50 µM (active)

## O=C(NCc1ccccc1)C1CCCN(S(=O)(=O)c2cccc3nsnc23)C1 (stereo not drawn)
[6]
  EC50: > 195 µM (not active)

## COc1ccc(NC(=O)CN2C(=O)COc3ccc(S(=O)(=O)N4CCOCC4)cc32)c(OC)c1
[6]
  EC50: > 195 µM (not active)

## O=C(NCc1ccccc1)N1CCC(CO)(Cc2cccc(F)c2)CC1
[6]
  EC50: > 195 µM (not active)

## Cc1cc(NC(=O)CSc2nnc(C)n2C)no1
[6]
  EC50: > 195 µM (not active)

## Cc1nn(CC(=O)NCCCc2ccccc2)c(C)c1[N+](=O)[O-]
[4]
  EC50: > 150 µM (inactive)

## CC(=O)Oc1c(Cl)cc(Cl)cc1/C=C/c1ccc2ccccc2n1
[3]
  AC50: 1.81 µM (active)

## O=C(Nc1ccc(Cl)cc1)N1CCCN(c2ccc(C(F)(F)F)cc2[N+](=O)[O-])CC1
[3]
  AC50: 4.79 µM (active)

## COc1ccc(-n2nc(C(=O)NCC(=O)NCc3ccccc3OC)c3ccccc3c2=O)c(OC)c1
[6]
  EC50: > 195 µM (not active)

## COc1ccc(S(=O)(=O)NCC(c2cccnc2)N2CCN(Cc3ccccc3)CC2)cc1 (stereo not drawn)
[1]
  EC50: 1.58 µM (active)
[2]
  EC50: > 60 µM (not active)

## CN1CCN(C(=O)CCc2ccc(S(=O)(=O)NC3CCCCC3)cc2)CC1
[1]
  EC50: 0.141 µM (active)
[2]
  EC50: > 60 µM (not active)

## COc1ccccc1-n1c(O)cc(=O)nc1SCC(=O)Nc1ccc(Br)cc1
[8]
  EC50: 6.68 µM (active)
Streptococcus
  EC50: 22.6 µM (active)

## Cc1sc2ncnc(N3CCC(C(=O)Nc4nc(-c5cccs5)cs4)CC3)c2c1C
[6]
  EC50: 1.07 µM (active)
[1]
  EC50: 1.6 µM (active)
[2]
  EC50: > 60 µM (not active)

## O=C(Nc1ccc(Br)cn1)c1cccc(-c2cc3ccccc3oc2=O)c1
[3]
  AC50: 8.81 µM (active)

## CNC(=O)c1ccc2c(c1)nnn2C
[4]
  EC50: 58.7 µM (active)
[5]
  EC50: > 38 µM (not active)

## c1ccc2c(c1)OCC(c1csc3ncnc(N4CCCCC4)c13)O2 (stereo not drawn)
[7]
  CC50: 16.8 µM (active)

## O=C(O)/C=C\C(=O)Nc1ccc(OCc2ccccc2)cc1
[6]
  EC50: 31 µM (active)

## O=C(Nc1ccc(Cl)c([N+](=O)[O-])c1)c1ccc(NCCCN2CCOCC2)c([N+](=O)[O-])c1
[1]
  EC50: 0.963 µM (active)
[2]
  EC50: > 60 µM (not active)

## NS(=O)(=O)c1ccc(CCNCC#Cc2ccccc2)cc1
[6]
  EC50: > 195 µM (not active)

## COc1cccc(CN(C(=O)Cc2c[nH]c3ccccc23)C(C(=O)NC2CCCCC2)c2cccs2)c1 (stereo not drawn)
[1]
  EC50: 1.98 µM (active)
[2]
  EC50: > 60 µM (not active)

## CCN=C(S)NNC(=O)c1cc(-c2cccc(C)c2)nc2ccccc12
[4]
  EC50: 20.2 µM (inconclusive)
[5]
  EC50: 2.5 µM (active)

## O=C(NC(=S)NCCc1ccccc1)C1CCCCC1
[3]
  AC50: 10.6 µM (active)

## CCN(c1ccccc1)S(=O)(=O)c1cccc(C(=O)NCC(c2cccs2)N2CCOCC2)c1 (stereo not drawn)
[3]
  AC50: > 195 µM (inactive)

## COC(=O)c1cc(=O)n(Cc2cccs2)/c(=N/c2ccc(F)cc2)s1
[3]
  AC50: 3.81 µM (active)

## Cc1[nH]n(-c2cccc3ccccc23)c(=O)c1/C=N/NC(=O)c1cccc([N+](=O)[O-])c1
[8]
  EC50: 2.98 µM (active)
[4]
  EC50: 12.1 µM (active)
Streptococcus
  EC50: 7.09 µM (active)
[5]
  EC50: > 38 µM (not active)

## CCCCC1SC(N/N=C/c2ccco2)=NC1=O (stereo not drawn)
[4]
  EC50: > 150 µM (inactive)
[5]
  EC50: 5.08 µM (active)

## CO/N=C/c1ccc(N2CCN(C(=O)c3ccc(C)cc3)CC2)c([N+](=O)[O-])c1
[4]
  EC50: > 160 µM (inactive)
[5]
  EC50: > 38 µM (not active)

## CNC(=S)N/N=C/c1ccc(-c2ccc(Cl)c([N+](=O)[O-])c2)o1
[4]
  EC50: > 150 µM (inconclusive)
[5]
  EC50: > 38 µM (not active)

## C/C(=N\NC(=O)c1nn(C)c(C)c1Br)c1ccc(NC(=O)C2CCCC2)cc1
[4]
  EC50: 34.4 µM (active)
[5]
  EC50: > 38 µM (not active)

## NC(=O)c1c(NC(=O)c2ccncc2)sc2c1CCCC2
[4]
  EC50: > 150 µM (inactive)
[5]
  EC50: 2.12 µM (active)

## C[C@@H](O)[C@H]1C(=O)N2C(C(=O)O)=C(S[C@@H]3CN[C@H](C(=O)N(C)C)C3)[C@H](C)[C@H]12 [MEROPENEM]
[8]
  EC50: 0.153 µM (active)
Streptococcus
  EC50: 1.15 µM (active)

## CCN(CC)CCOC(=O)c1ccc(N)cc1 [PROCAINE HYDROCHLORIDE]
[6]
  EC50: > 195 µM (not active)

— ChEMBL document CHEMBL1201862, “PubChem BioAssay data set” (2004)
